Test results as given in patent US20100298141A1, “SUBSTITUTED PYRIDINE N-OXIDE HERBICIDES” (E. I. DU PONT DE NEMOURS AND COMPANY, priority 2007, published 2010).

Legend:
cocklebur = test: Test C pre-/postemergence test; assay type: in vivo, Xanthium strumarium; conditions: for Plant response rating, Cocklebur: scale 0 to 100, 0 no effect, 100 complete control
Procedure, shortened: (§1)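 Test chemicals were formulated with surfactant in a non-phytotoxic solvent and sprayed both on freshly planted seeds (preemergence) and on 1- to 4-leaf plants of 2–18 cm (postemergence). Flooded-paddy pots received compound directly into 3 cm of standing water, maintained for the test.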

eastern black nightshade = test: Test C pre-/postemergence test; assay type: in vivo, Solanum ptycanthum
Procedure, shortened: as §1

corn [1] = test: Test A pre-/postemergence greenhouse test; assay type: in vivo, Zea mays; conditions: for Corn plant response rating: 0 to 100 scale
Procedure, shortened: (§2)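 Two application timings were run side by side in the greenhouse. Before emergence, compound went onto the soil surface of loam–sand pots as a directed spray; after emergence, plants at 2–10 cm and the one- to two-leaf stage were treated. Visual injury versus controls was rated at approximately day ten.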

wild oat = test: Test C pre-/postemergence test; assay type: in vivo, Avena fatua; conditions: for Plant response rating, Oat, Wild: scale 0 to 100, 0 no effect, 100 complete control
Procedure, shortened: as §1

morningglory [2] = test: Test C pre-/postemergence test; assay type: in vivo, Ipomoea coccinea; conditions: for Plant response rating, Morningglory: Postemergence, scale 0 to 100, 0 no effect, 100 complete control
Procedure, shortened: as §1

yellow nutsedge = test: Test C pre-/postemergence test; assay type: in vivo, Cyperus esculentus; conditions: for Plant response rating, Nutsedge, Yellow: scale 0 to 100, 0 no effect, 100 complete control
Procedure, shortened: as §1

rice = test: Test C flooded paddy test; assay type: in vivo, Oryza sativa; conditions: Flood
Procedure, shortened: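 Greenhouse pots flooded to 3 cm above soil at time of treatment received compound via the water, which stayed at that level.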

corn [3] = test: Test C pre-/postemergence test; assay type: in vivo, Zea mays; conditions: for Plant response rating, Corn: scale 0 to 100, 0 no effect, 100 complete control
Procedure, shortened: as §1

kochia = test: Test C pre-/postemergence test; assay type: in vivo, Kochia scoparia; conditions: for Plant response rating, Kochia: scale 0 to 100, 0 no effect, 100 complete control
Procedure, shortened: as §1

bermudagrass = test: Test C pre-/postemergence test; assay type: in vivo, Cynodon dactylon; conditions: for Plant response rating, Bermudagrass: scale 0 to 100, 0 no effect, 100 complete control
Procedure, shortened: as §1

johnsongrass = test: Test C pre-/postemergence test; assay type: in vivo, Sorghum halepense; conditions: for Plant response rating, Johnsongrass: scale 0 to 100, 0 no effect, 100 complete control
Procedure, shortened: as §1

morningglory [4] = test: Test A pre-/postemergence greenhouse test; assay type: in vivo, Ipomoea spp.; conditions: for Morningglory plant response rating: 0 to 100 scale
Procedure, shortened: as §2

[5] = tested on: common (oilseed) sunflower; test: Test C pre-/postemergence test; assay type: in vivo, Helianthus annuus; conditions: for Sunflower plant response rating: preemergence, scale 0 (no effect) to 100 (complete control)
Procedure, shortened: as §1

giant foxtail = test: Test C pre-/postemergence test; assay type: in vivo, Setaria faberii; conditions: for Plant response rating, Foxtail, Giant: scale 0 to 100, 0 no effect, 100 complete control
Procedure, shortened: as §1

Italian ryegrass = test: Test C pre-/postemergence test; assay type: in vivo, Lolium multiflorum; conditions: for Ryegrass, Italian plant response rating: preemergence, scale 0 (no effect) to 100 (complete control); for Plant response rating, Ryegrass, Italian: scale 0 to 100, 0 no effect, 100 complete control
Procedure, shortened: as §1

wheat = test: Test C pre-/postemergence test; assay type: in vivo, Triticum aestivum; conditions: for Wheat plant response rating: preemergence, scale 0 (no effect) to 100 (complete control); for Plant response rating, Wheat: scale 0 to 100, 0 no effect, 100 complete control
Procedure, shortened: as §1

redroot pigweed = test: Test A pre-/postemergence greenhouse test; assay type: in vivo, Amaranthus retroflexus; conditions: for Pigweed plant response rating: 0 to 100 scale
Procedure, shortened: as §2

[6] = 31 g ai/ha, Preemergence, scale 0 to 100
[7] = 62 g ai/ha, preemergence, scale 0 (no effect) to 100 (complete control)
[8] = preemergence, 125 g ai/ha, scale 0 (no effect) to 100 (complete control)
[9] = Postemergence, 125 g ai/ha, 0 is no effect, 100 is complete control
[10] = Postemergence, 500 g ai/ha, 0 is no effect, 100 is complete control
[11] = Preemergence, 125 g ai/ha, 0 no effect, 100 complete control
[12] = Preemergence, 500 g ai/ha, 0 to 100 scale where 0 is no effect and 100 is complete control

SMILES: Cc1cc[n+]([O-])c(S(=O)(=O)Cc2c(C(F)(F)F)nn(C)c2OC(F)F)c1 [Compound 2]
- Cocklebur plant response rating (cocklebur; [6]): 0
- Cocklebur plant response rating (cocklebur; [7]): 0
- Plant response rating (0 to 100), Cocklebur (cocklebur; Postemergence, 31 g ai/ha): 0
- Plant response rating, Cocklebur (cocklebur; Postemergence, 62 g ai/ha): 0
- Plant response rating, Cocklebur (cocklebur; Postemergence, 125 g ai/ha): 0
- Plant response rating, Cocklebur (cocklebur; Postemergence, 250 g ai/ha): 10
- Plant response rating (0 to 100), Cocklebur (cocklebur; Preemergence, 250 g ai/ha): 100
- Cocklebur plant response rating (cocklebur; [8]): 70
- Nightshade plant response rating (eastern black nightshade; [6]): 98
- Nightshade plant response rating (eastern black nightshade; [7]): 100
- Plant response rating (0 to 100), Nightshade (eastern black nightshade; Preemergence, 250 g ai/ha): 100
- Nightshade plant response rating (eastern black nightshade; [8]): 100
- Corn plant response rating (corn [1]; [9]): 60
- Corn plant response rating (corn [1]; [10]): 60
- Corn plant response rating (corn [1]; [11]): 0
- Plant response rating, Corn (corn [1]; [12]): 40
- Oat, Wild plant response rating (wild oat; [6]): 50
- Oat, Wild plant response rating (wild oat; [7]): 65
- Plant response rating (0 to 100), Oat, Wild (wild oat; Postemergence, 31 g ai/ha): 0
- Plant response rating, Oat, Wild (wild oat; Postemergence, 62 g ai/ha): 0
- Plant response rating, Oat, Wild (wild oat; Postemergence, 125 g ai/ha): 0
- Plant response rating, Oat, Wild (wild oat; Postemergence, 250 g ai/ha): 0
- Plant response rating (0 to 100), Oat, Wild (wild oat; Preemergence, 250 g ai/ha): 95
- Oat, Wild plant response rating (wild oat; [8]): 70
- Morningglory plant response rating (morningglory [2]; [6]): 85
- Morningglory plant response rating (morningglory [2]; [7]): 100
- Plant response rating, Morningglory (morningglory [2]; 62 g ai/ha): 5
- Plant response rating, Morningglory (morningglory [2]; 125 g ai/ha): 5
- Plant response rating, Morningglory (morningglory [2]; 250 g ai/ha): 30
- Plant response rating (0 to 100), Morningglory (morningglory [2]; Preemergence, 250 g ai/ha): 100
- Morningglory plant response rating (morningglory [2]; [8]): 100
- Nutsedge, Yellow plant response rating (yellow nutsedge; [6]): 0
- Nutsedge, Yellow plant response rating (yellow nutsedge; [7]): 95
- Plant response rating (0 to 100), Nutsedge, Yellow (yellow nutsedge; Postemergence, 31 g ai/ha): 0
- Plant response rating, Nutsedge, Yellow (yellow nutsedge; Postemergence, 62 g ai/ha): 0
- Plant response rating, Nutsedge, Yellow (yellow nutsedge; Postemergence, 125 g ai/ha): 0
- Plant response rating, Nutsedge, Yellow (yellow nutsedge; Postemergence, 250 g ai/ha): 0
- Plant response rating (0 to 100), Nutsedge, Yellow (yellow nutsedge; Preemergence, 250 g ai/ha): 100
- Nutsedge, Yellow plant response rating (yellow nutsedge; [8]): 95
- Plant response rating, Rice (rice; 31 g ai/ha, scale 0 to 100 (0 no effect, 100 complete control)): 0
- Plant response rating, Rice (rice; 62 g ai/ha, scale 0 to 100, 0 no effect, 100 complete control, 13 to 15 days): 10
- Plant response rating, Rice (rice; 125 g ai/ha, scale 0 to 100, 0 no effect, 100 complete control, 13 to 15 days): 45
- Plant response rating, Rice (rice; 250 g ai/ha, scale 0 to 100 (0 no effect, 100 complete control)): 70
- Corn plant response rating (corn [3]; [6]): 0
- Corn plant response rating (corn [3]; [7]): 5
- Plant response rating (0 to 100), Corn (corn [3]; Postemergence, 31 g ai/ha): 0
- Plant response rating, Corn (corn [3]; Postemergence, 62 g ai/ha): 0
- Plant response rating, Corn (corn [3]; Postemergence, 125 g ai/ha): 0
- Plant response rating, Corn (corn [3]; Postemergence, 250 g ai/ha): 0
- Plant response rating (0 to 100), Corn (corn [3]; Preemergence, 250 g ai/ha): 85
- Corn plant response rating (corn [3]; [8]): 45
- Kochia plant response rating (kochia; [6]): 100
- Kochia plant response rating (kochia; [7]): 100
- Plant response rating (0 to 100), Kochia (kochia; Postemergence, 31 g ai/ha): 0
- Plant response rating, Kochia (kochia; Postemergence, 62 g ai/ha): 0
- Plant response rating, Kochia (kochia; Postemergence, 125 g ai/ha): 5
- Plant response rating, Kochia (kochia; Postemergence, 250 g ai/ha): 5
- Plant response rating (0 to 100), Kochia (kochia; Preemergence, 250 g ai/ha): 100
- Kochia plant response rating (kochia; [8]): 100
- Bermudagrass plant response rating (bermudagrass; [6]): 100
- Bermudagrass plant response rating (bermudagrass; [7]): 100
- Plant response rating (0 to 100), Bermudagrass (bermudagrass; Postemergence, 31 g ai/ha): 0
- Plant response rating, Bermudagrass (bermudagrass; Postemergence, 62 g ai/ha): 0
- Plant response rating, Bermudagrass (bermudagrass; Postemergence, 125 g ai/ha): 0
- Plant response rating, Bermudagrass (bermudagrass; Postemergence, 250 g ai/ha): 40
- Plant response rating (0 to 100), Bermudagrass (bermudagrass; Preemergence, 250 g ai/ha): 100
- Bermudagrass plant response rating (bermudagrass; [8]): 100
- Johnsongrass plant response rating (johnsongrass; [6]): 30
- Johnsongrass plant response rating (johnsongrass; [7]): 95
- Plant response rating (0 to 100), Johnsongrass (johnsongrass; Postemergence, 31 g ai/ha): 0
- Plant response rating, Johnsongrass (johnsongrass; Postemergence, 62 g ai/ha): 0
- Plant response rating, Johnsongrass (johnsongrass; Postemergence, 125 g ai/ha): 0
- Plant response rating, Johnsongrass (johnsongrass; Postemergence, 250 g ai/ha): 0
- Plant response rating (0 to 100), Johnsongrass (johnsongrass; Preemergence, 250 g ai/ha): 100
- Johnsongrass plant response rating (johnsongrass; [8]): 100
- Morningglory plant response rating (morningglory [4]; [9]): 60
- Morningglory plant response rating (morningglory [4]; [10]): 100
- Morningglory plant response rating (morningglory [4]; [11]): 80
- Plant response rating, Morningglory (morningglory [4]; [12]): 90
- Sunflower plant response rating ([5]; 62 g ai/ha): 5
- Plant response rating (0 to 100), Sunflower ([5]; Preemergence, 250 g ai/ha): 100
- Sunflower plant response rating ([5]; 125 g ai/ha): 80
- Foxtail, Giant plant response rating (giant foxtail; [6]): 65
- Foxtail, Giant plant response rating (giant foxtail; [7]): 90
- Plant response rating (0 to 100), Foxtail, Giant (giant foxtail; Postemergence, 31 g ai/ha): 0
- Plant response rating, Foxtail, Giant (giant foxtail; Postemergence, 62 g ai/ha): 0
- Plant response rating, Foxtail, Giant (giant foxtail; Postemergence, 125 g ai/ha): 0
- Plant response rating, Foxtail, Giant (giant foxtail; Postemergence, 250 g ai/ha): 50
- Plant response rating (0 to 100), Foxtail, Giant (giant foxtail; Preemergence, 250 g ai/ha): 100
- Foxtail, Giant plant response rating (giant foxtail; [8]): 100
- Ryegrass, Italian plant response rating (Italian ryegrass; 62 g ai/ha): 50
- Plant response rating (0 to 100), Ryegrass, Italian (Italian ryegrass; Postemergence, 31 g ai/ha): 0
- Plant response rating (0 to 100), Ryegrass, Italian (Italian ryegrass; Postemergence, 62 g ai/ha): 0
- Plant response rating, Ryegrass, Italian (Italian ryegrass; Postemergence, 125 g ai/ha): 0
- Plant response rating, Ryegrass, Italian (Italian ryegrass; Postemergence, 250 g ai/ha): 0
- Plant response rating (0 to 100), Ryegrass, Italian (Italian ryegrass; Preemergence, 250 g ai/ha): 100
- Ryegrass, Italian plant response rating (Italian ryegrass; 125 g ai/ha): 50
- Wheat plant response rating (wheat; 62 g ai/ha): 0
- Plant response rating (0 to 100), Wheat (wheat; Postemergence, 31 g ai/ha): 0
- Plant response rating (0 to 100), Wheat (wheat; Postemergence, 62 g ai/ha): 0
- Plant response rating, Wheat (wheat; Postemergence, 125 g ai/ha): 0
- Plant response rating, Wheat (wheat; Postemergence, 250 g ai/ha): 0
- Plant response rating (0 to 100), Wheat (wheat; Preemergence, 250 g ai/ha): 98
- Wheat plant response rating (wheat; 125 g ai/ha): 70
- Pigweed plant response rating (redroot pigweed; [9]): 100
- Pigweed plant response rating (redroot pigweed; [10]): 100
- Pigweed plant response rating (redroot pigweed; [11]): 100
- Plant response rating, Pigweed (redroot pigweed; [12]): 100
